# Experiments:
# LTC4 receptor [1] = target: T1, LTC4 receptor (Homo sapiens, UniProt Q9NS75); test: Inhibition of [3H]-LTC4 binding, membrane fraction of CHO cells stably expressing LTC4 receptor; settings: 0.5×10^−9 M [3H]-LTC4; 15 μg CHO membrane fraction; 1 hour, room temperature
# T1 construct: expressed in transfected cells; whole cells or membrane fraction
# T1 sequence (Q9NS75 1-346): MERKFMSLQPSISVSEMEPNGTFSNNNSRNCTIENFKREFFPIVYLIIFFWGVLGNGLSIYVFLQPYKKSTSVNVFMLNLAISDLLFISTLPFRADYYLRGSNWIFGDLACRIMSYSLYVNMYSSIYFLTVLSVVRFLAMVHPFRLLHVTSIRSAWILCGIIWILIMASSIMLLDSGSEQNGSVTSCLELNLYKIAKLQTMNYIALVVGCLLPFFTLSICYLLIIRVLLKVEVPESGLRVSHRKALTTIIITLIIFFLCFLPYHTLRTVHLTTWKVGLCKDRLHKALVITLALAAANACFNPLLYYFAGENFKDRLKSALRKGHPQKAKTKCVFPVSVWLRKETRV
# Description: Micro-scintillator was added to the glass filter and the radioactivity was measured by a liquid scintillation counter. […] Compound A was produced as follows.
# LTC4 receptor [2] = target: T1, LTC4 receptor; test: Cell migration of CHO cells expressing LTC4 receptors elicited by LTC4; assay type: cell-based; settings: compound in upper layer, 3 nM LTC4 in lower layer
# Description: After culturing for 4 hours in a CO2 incubator at 37° C., the frame filter was fixed in methanol and stained with Diff-Quik staining kit (Kokusai-Shiyaku). The upper surface (the side onto which the cells were inoculated) of the filter was wiped, and after air drying, absorbance at 595 nm was measured with the plate reader (Molecular Devices).
# [3] = test system: human coronary arterial smooth muscle cells; test: Increase of intracellular Ca++ concentration by LTC4 in coronary arterial smooth muscle cells; assay type: cell-based
# Description: The medium was discarded, and by adding 100 μl/well of Hanks BSS containing 4 μM Fluo-3, AM (Molecular Probe), 0.004% pluronic acid, 1% FBS, 20 mM HEPES, and 2.5 mM probenecid, the cells were incubated for 1 hour at 37° C. […] It is well known that the increase of intracellular Ca^++ concentration in blood vessel smooth muscle cells causes vasoconstriction (Bolton, T. B., et al. Physiol. Rev. (1979) 59, 606–718).
# LTC4 receptor [4] = target: T1, LTC4 receptor; test: Inhibition of increase of intracellular Ca++ concentration elicited by LTC4 or LTD4, CHO cells stably expressing LTC4 receptors; assay type: cell-based
# Description: After culturing for 24 hours, medium was discarded and 100 μl/well of Hanks BSS containing 4 μM Fluo-3, AM (Molecular Probe), 0.004% pluronic acid, 1% FBS, 20 mM HEPES, and 2.5 mM probenecid was added, and incubated at 37° C. for 1 hour.
# The changes of intracellular Ca^++ concentration were measured using FLIPR with the same condition as in Example 6.
# pig LTC4 receptor [5] = target: T2, pig LTC4 receptor (Sus scrofa, UniProt Q95N03); test: Increase of intracellular Ca++ concentration, HEK293-EBNA cells transfected with pEF-BOS-pig LTC4 receptor; assay type: cell-based; settings: Logistic regression
# T2 construct: expressed in transfected cells
# T2 sequence (Q95N03 1-345): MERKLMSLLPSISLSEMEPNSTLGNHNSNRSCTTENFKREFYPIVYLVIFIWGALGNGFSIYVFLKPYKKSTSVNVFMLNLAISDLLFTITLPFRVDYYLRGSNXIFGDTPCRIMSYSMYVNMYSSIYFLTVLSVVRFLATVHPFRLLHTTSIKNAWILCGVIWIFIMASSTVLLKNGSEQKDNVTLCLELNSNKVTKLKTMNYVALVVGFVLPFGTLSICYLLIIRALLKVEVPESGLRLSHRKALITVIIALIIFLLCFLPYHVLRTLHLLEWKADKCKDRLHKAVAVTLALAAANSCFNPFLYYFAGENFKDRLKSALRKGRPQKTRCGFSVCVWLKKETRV
# Description: (§1) 2.5×10^4 cells per well of HEK293-EBNA cells were inoculated to 96 well Black/clear bottom plate, collagen type I coated (BECTON DICKINSON). After culturing for 24 hours, 40 ng per well of pEF-BOS-PSECO 146 or pEF-BOS (empty vector) were transfected into the cells using FuGENE6 (Boeringer Mannheim). 24 hours after gene transfection, the medium was discarded, 100 μl per well of DMEM containing 4 μM Fluo-3, AM (Molecular Probe), 0.004% pluronic acid, and 10% FBS was added and incubated for 1 hour at 37° C. Following incubation, cells were washed four times with Hanks BSS containing 20 mM HEPES (GIBCO), then 100 μl per well of Hanks BSS containing 20 mM HEPES was added. The time course of the changes of intracellular Ca^++ concentration was measured using FLIPR (Molecular Device).
# Further, the changes of intracellular Ca^++ concentration were measured using HEK293-EBNA cells under the same condition as in Example 5.
# pig LTC4 receptor [6] = target: T2, pig LTC4 receptor; test: [3H]-LTC4 saturation binding, membrane fraction of COS-1 cells transfected with pEF-BOS-pig LTC4 receptor
# Description: 2×10^6 COS-1 cells were inoculated to a […] culture flask and cultured for 36 hours, and then, 50 μg of pEF-BOS-PSEC0146 or pEF-BOS (empty vector) was transfected using FuGENE6 (Boeringer Mannheim) Cells cultured for 36 hours following gene transfection were recovered and washed, then suspended in 20 mM Tris-HCl (pH 7.4), 5 mM EDTA and homogenized with a Polytron homogenizer. After ultracentrifugation, the homogenized cells were suspended in 50 mM HEPES (pH 7.4), 40 mM MgCl2, 1 mM EGTA as a membrane fraction. 0.5 to 14×10^−9 M of [^3H]-LTC4 (Daiichi Pure Chemicals) at final concentration was added to 5 μg of the membrane fraction, and incubated 1 hour at room temperature in 250 μl solution comprising 50 mM HEPES (pH 7.4), 40 mM MgCl2, 1 mM EGTA, 5 mM L-Serine, 10 mM Borate, 2 mM L-Cystein, and 2 mM L-Glycine. Thereafter, the membrane fraction was recovered on a glass filter using a cell harvester. Micro-scintillator was added to the glass filter and the total binding to the membrane fraction was measured by using a liquid scintillation counter. […]
# First, to express the protein encoded by the cDNA, the cDNA was obtained by PCR using pig genomic DNA as the template. The nucleotide sequence of primers required for PCR was designed based on the nucleotide sequence information determined in Example 15. […]
# rat LTC4 receptor = target: T3, rat LTC4 receptor (Rattus norvegicus, UniProt Q924T9); test: Increase of intracellular Ca++ concentration, HEK293-EBNA cells transfected with pEF-BOS-rat LTC4 receptor; assay type: cell-based; settings: Logistic regression
# T3 construct: expressed in transfected cells
# T3 sequence (Q924T9 1-309): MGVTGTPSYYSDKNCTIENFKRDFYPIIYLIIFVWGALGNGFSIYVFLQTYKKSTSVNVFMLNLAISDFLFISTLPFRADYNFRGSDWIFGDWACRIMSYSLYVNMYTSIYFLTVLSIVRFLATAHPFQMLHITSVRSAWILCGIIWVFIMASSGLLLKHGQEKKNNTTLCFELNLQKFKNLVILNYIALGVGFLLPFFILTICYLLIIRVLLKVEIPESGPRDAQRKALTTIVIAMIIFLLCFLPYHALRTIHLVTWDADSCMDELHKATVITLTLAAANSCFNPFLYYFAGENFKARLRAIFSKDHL
# Description: as §1
# This plasmid was designated as pEF-BOS-rat LTC4 receptor.
# The changes of intracellular Ca^++ concentration were measured using HEK293-EBNA cells under the same condition as in Example 5.
IC50 (LTC4 receptor [1]) [nM],inhibition of cell migration by LTC4 (LTC4 receptor [2]),IC50 (LTC4 receptor [4]) [nM],"inhibition of increase of intracellular Ca++ concentration elicited by LTD4 (LTC4 receptor [4]; CHO stable cells, LTD4 stimulus)","maximum binding (Bmax) (pig LTC4 receptor [6]; Scatchard analysis, COS-1 membrane fraction) [pmol/mg protein]","Kd (pig LTC4 receptor [6]; read-out: dissociation constant of LTC4 binding (Kd), Scatchard analysis, COS-1 membrane fraction) [nM]",Structure (SMILES),inhibition of increase of intracellular Ca++ concentration by LTC4 ([3]; 5 min pre-treatment),EC50 (pig LTC4 receptor [5]) [nM],increase of intracellular Ca++ concentration ([3]; 10^−6 to 10^−9 M LTC4),EC50 (rat LTC4 receptor) [nM]
1200,inhibits dose-dependently,2300,inhibited dose-dependently,–,–,"CCCn1c(-c2ccc3c(S(=O)(=O)Nc4onc(C)c4C)cccc3c2)nc2ccccc21 [Compound A, N-(3,4-dimethyl-5-isoxazolyl)-6-(1-propyl-1H-benzimidazol-2-yl) -1-naphthalenesulfonamide]",inhibit dose-dependently,–,–,–
–,–,–,–,0.25,2.89,"CCCCC/C=C\C\C=C/C=C/C=C/[C@@H](SC[C@H](NC(=O)CC[C@H](N)C(=O)O)C(=O)NCC(=O)O)[C@@H](O)CCCC(=O)O [LTC4, leukotriene C4]",–,5,induce increase of the intracellular Ca^++ concentration in a dose-dependent manner,19
–,–,–,–,–,–,"CCCCC/C=C\C\C=C/C=C/C=C/[C@@H](SC[C@H](N)C(=O)NCC(=O)O)[C@@H](O)CCCC(=O)O [LTD4, leukotriene D4]",–,3.3,–,7.7

# Source: patent publication US7217800B2, “Peptide leukotriene receptor” (Astellas Pharma Inc., priority 1999, dated 2007)
